Test results published in PubChem BioAssay (NCI).
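These data come from cells grown in 96-well plates and exposed to compound for 48 hours at five concentrations. GI50 marks 50% less growth. At the TGI there is no net growth.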

How the values were obtained:
Assay in all cases: NCI anticancer screen, dose series, 48 h
BT-549 breast = test system: BT-549 breast
UACC-257 melanoma = test system: UACC-257 melanoma
NCI-H226 lung = test system: NCI-H226 lung
NCI-H23 lung = test system: NCI-H23 lung
HOP-92 NSCLC = test system: HOP-92 NSCLC
NCI/ADR-RES ovarian = test system: NCI/ADR-RES ovarian
SNB-19 CNS = test system: SNB-19 CNS
OVCAR-5 ovarian = test system: OVCAR-5 ovarian
786-0 renal = test system: 786-0 renal
RXF 393 renal = test system: RXF 393 renal
HOP-62 NSCLC = test system: HOP-62 NSCLC
HL-60(TB) leukemia = test system: HL-60(TB) leukemia
SF-295 CNS = test system: SF-295 CNS
OVCAR-8 ovarian = test system: OVCAR-8 ovarian
HS 578T breast = test system: HS 578T breast
TK-10 renal = test system: TK-10 renal
SK-OV-3 ovarian = test system: SK-OV-3 ovarian
CCRF-CEM leukemia = test system: CCRF-CEM leukemia
K-562 leukemia = test system: K-562 leukemia
A498 renal = test system: A498 renal
HCT-15 colon = test system: HCT-15 colon
UACC-62 melanoma = test system: UACC-62 melanoma
CAKI-1 renal = test system: CAKI-1 renal
PC-3 prostate = test system: PC-3 prostate
UO-31 renal = test system: UO-31 renal
MOLT-4 leukemia = test system: MOLT-4 leukemia
ACHN renal = test system: ACHN renal
SR leukemia = test system: SR leukemia
M14 melanoma = test system: M14 melanoma
HT29 colon = test system: HT29 colon
SK-MEL-5 melanoma = test system: SK-MEL-5 melanoma
SK-MEL-28 melanoma = test system: SK-MEL-28 melanoma
NCI-H460 lung = test system: NCI-H460 lung
MDA-MB-231 breast = test system: MDA-MB-231 breast
HCC-2998 colon = test system: HCC-2998 colon
DU-145 prostate = test system: DU-145 prostate
MDA-MB-435 = test system: MDA-MB-435
HCT-116 colon = test system: HCT-116 colon
SN12C renal = test system: SN12C renal
LOX IMVI melanoma = test system: LOX IMVI melanoma
SNB-75 CNS = test system: SNB-75 CNS
OVCAR-4 ovarian = test system: OVCAR-4 ovarian
SK-MEL-2 melanoma = test system: SK-MEL-2 melanoma
SF-539 CNS = test system: SF-539 CNS
COLO 205 colon = test system: COLO 205 colon
MALME-3M melanoma = test system: MALME-3M melanoma
EKVX NSCLC = test system: EKVX NSCLC
RPMI-8226 leukemia = test system: RPMI-8226 leukemia
MCF7 breast = test system: MCF7 breast
NCI-H522 lung = test system: NCI-H522 lung
A549 NSCLC = test system: A549 NSCLC
KM12 colon = test system: KM12 colon
U251 CNS = test system: U251 CNS
IGROV1 ovarian = test system: IGROV1 ovarian

## CO/N=C1\CC(C)N2C(=O)C(C(C)C)NC(=O)C(NC(=O)c3c4nc5c(C(=O)NC6C(=O)NC(C(C)C)C(=O)N7C(C)CC(O)C7C(=O)N(C)CC(=O)N(C)C(C(C)C)C(=O)OC6C)ccc(C)c5oc-4c(C)c(=O)c3N)C(CO)OC(=O)C(C)N(C)C(=O)CN(C)C(=O)C12 (stereo unspecified)
BT-549 breast
  TGI: 17 µM
UACC-257 melanoma
  TGI: 4.31 µM
NCI-H226 lung
  TGI: 3.81 µM
NCI-H23 lung
  TGI: 14.5 µM
HOP-92 NSCLC
  TGI: 16.9 µM

## O=C(Nc1cccc(C2=NCCN2)c1)c1ccc(OCCCOc2ccc(C(=O)Nc3cccc(C4=NCCN4)c3)cc2)cc1
NCI/ADR-RES ovarian
  GI50: 46.2 µM
  TGI: > 100 µM
SNB-19 CNS
  GI50: 2.69 µM
  TGI: > 100 µM
OVCAR-5 ovarian
  GI50: 3.51 µM
  TGI: 20.4 µM
786-0 renal
  GI50: 3.69 µM
  TGI: > 100 µM
RXF 393 renal
  GI50: 5.78 µM
  TGI: > 100 µM
HOP-62 NSCLC
  GI50: 4.45 µM
  TGI: > 100 µM
HL-60(TB) leukemia
  GI50: 2.3 µM
  TGI: > 100 µM
SF-295 CNS
  GI50: 3.29 µM
  TGI: > 100 µM
OVCAR-8 ovarian
  GI50: 4.03 µM
  TGI: > 100 µM
HS 578T breast
  GI50: 2.55 µM
  TGI: 6.6 µM
TK-10 renal
  GI50: 13.2 µM
  TGI: 35.3 µM
SK-OV-3 ovarian
  GI50: 2.39 µM
  TGI: 5.41 µM
CCRF-CEM leukemia
  GI50: 4 µM
  TGI: > 100 µM
K-562 leukemia
  GI50: 1.25 µM
  TGI: > 100 µM
A498 renal
  GI50: 2.3 µM
  TGI: 8.37 µM
HCT-15 colon
  GI50: 20.2 µM
  TGI: > 100 µM
UACC-62 melanoma
  GI50: 1.41 µM
  TGI: 45.7 µM
CAKI-1 renal
  GI50: 4.67 µM
  TGI: 84.6 µM
PC-3 prostate
  GI50: 2.78 µM
  TGI: 8.21 µM
UO-31 renal
  GI50: 13.5 µM
  TGI: > 100 µM
HOP-92 NSCLC
  GI50: 1.25 µM
  TGI: 7 µM
MOLT-4 leukemia
  GI50: 3.86 µM
  TGI: > 100 µM
ACHN renal
  GI50: 21.8 µM
  TGI: > 100 µM
SR leukemia
  GI50: 1.96 µM
  TGI: > 100 µM
M14 melanoma
  GI50: 2.88 µM
  TGI: > 100 µM

## Cc1ccc(-n2nnc3c(NNc4ccccc4)n[nH]c(=O)c32)cc1
HT29 colon
  TGI: > 100 µM
SK-MEL-5 melanoma
  TGI: > 100 µM
NCI/ADR-RES ovarian
  TGI: > 100 µM
BT-549 breast
  TGI: > 100 µM
SK-MEL-28 melanoma
  TGI: > 100 µM
SNB-19 CNS
  TGI: > 100 µM
UACC-257 melanoma
  TGI: > 100 µM
OVCAR-5 ovarian
  TGI: > 100 µM
786-0 renal
  TGI: > 100 µM
NCI-H226 lung
  TGI: > 100 µM
NCI-H460 lung
  TGI: > 100 µM
MDA-MB-231 breast
  TGI: > 100 µM
HCC-2998 colon
  TGI: > 100 µM
DU-145 prostate
  TGI: > 100 µM
MDA-MB-435
  TGI: > 100 µM
HCT-116 colon
  TGI: > 100 µM
HOP-62 NSCLC
  TGI: > 100 µM
NCI-H23 lung
  TGI: > 100 µM
SN12C renal
  TGI: > 100 µM
LOX IMVI melanoma
  TGI: > 100 µM
HL-60(TB) leukemia
  TGI: > 100 µM
SF-295 CNS
  TGI: > 100 µM
OVCAR-8 ovarian
  TGI: > 100 µM
TK-10 renal
  TGI: 75.4 µM
SNB-75 CNS
  TGI: > 100 µM
OVCAR-4 ovarian
  TGI: > 100 µM
SK-MEL-2 melanoma
  TGI: > 100 µM
CCRF-CEM leukemia
  TGI: > 100 µM
K-562 leukemia
  TGI: > 100 µM
SF-539 CNS
  TGI: > 100 µM
COLO 205 colon
  TGI: > 100 µM
MALME-3M melanoma
  TGI: > 100 µM
HCT-15 colon
  TGI: > 100 µM
EKVX NSCLC
  TGI: > 100 µM
CAKI-1 renal
  TGI: > 100 µM
PC-3 prostate
  TGI: > 100 µM
RPMI-8226 leukemia
  TGI: > 100 µM
HOP-92 NSCLC
  TGI: > 100 µM
MOLT-4 leukemia
  TGI: > 100 µM
MCF7 breast
  TGI: > 100 µM
NCI-H522 lung
  TGI: > 100 µM
A549 NSCLC
  TGI: > 100 µM
ACHN renal
  TGI: > 100 µM
KM12 colon
  TGI: > 100 µM
SR leukemia
  TGI: > 100 µM
M14 melanoma
  TGI: > 100 µM
U251 CNS
  TGI: > 100 µM

## O=C1c2[nH]cc(CN[C@@H]3CCCN3)c2C(=O)c2c1c(O)c1ccccc1c2O
NCI/ADR-RES ovarian
  GI50: 3.88 µM
  TGI: 30.6 µM
BT-549 breast
  GI50: 4.67 µM
  TGI: 38.4 µM
MDA-MB-231 breast
  GI50: 0.527 µM
  TGI: 1.84 µM
DU-145 prostate
  GI50: 0.786 µM
  TGI: 2.04 µM
SF-295 CNS
  GI50: 0.288 µM
  TGI: 1.25 µM
TK-10 renal
  GI50: 1.07 µM
  TGI: 2.29 µM
SK-OV-3 ovarian
  GI50: 0.583 µM
  TGI: 1.78 µM
SF-539 CNS
  GI50: 1.36 µM
  TGI: 2.67 µM
A498 renal
  GI50: 0.544 µM
  TGI: 16.3 µM
MALME-3M melanoma
  GI50: 1.59 µM
  TGI: 3.07 µM
UACC-62 melanoma
  GI50: 1.29 µM
  TGI: 2.58 µM
CAKI-1 renal
  GI50: 0.927 µM
  TGI: 2.87 µM
PC-3 prostate
  GI50: 0.358 µM
  TGI: 1.51 µM
UO-31 renal
  GI50: 0.261 µM
  TGI: 1.52 µM
HOP-92 NSCLC
  GI50: 0.19 µM
  TGI: 1.65 µM
IGROV1 ovarian
  GI50: 0.262 µM
  TGI: 1.02 µM
M14 melanoma
  GI50: 1.58 µM
  TGI: 3 µM
